Measured values as given in article PMC11707430, “Novel antibiotics against Staphylococcus aureus without detectable resistance by targeting proton motive force and FtsH” (MedComm, 2025).

Experiments:
[1] = tested on: Salmonella typhimurium (TA97a, TA98, TA100, and TA1535) and E. coli WP2 uvrA (pKM101); assay: Ames test (overall); type: cell-based
Experimental: (§1) Ames test. Genotoxicity of the compounds was determined by Ames Kit (IPHASE, Beijing, China) containing Salmonella typhimurium (TA97a, TA98, TA100, and TA1535) and E. coli WP2 uvrA (pKM101). Diclofenac and 2-aminofluorene were used as positive controls for TA97a and TA98. Methyl methanesulfonate and 2-aminofluorene were used as positive controls for TA100. Methyl methanesulfonate and 2-aminoanthracene were used as positive controls for WP2 uvrA (pKM101). NaN3 and 2-aminoanthracene were used as positive controls for TA1535. The bottom and top layer culture medium, and S9 mixed solution were prepared according to the manufacturer’s instructions. After incubation at 37℃ for 48h, the colonies were counted.

[2] = tested on: TA 98; assay: Ames test; type: cell-based, Salmonella typhimurium
Experimental: as §1

[3] = tested on: TA 100; assay: Ames test; type: cell-based, Salmonella typhimurium
Experimental: as §1

[4] = tested on: TA 97a; assay: Ames test; type: cell-based, Salmonella typhimurium
Experimental: as §1

[5] = tested on: TA 1535; assay: Ames test; type: cell-based, Salmonella typhimurium
Experimental: as §1

[6] = tested on: S. aureus ATCC 43300; assay: Consecutive resistance inducing assay; type: cell-based; details: sub-MIC (1/2×MIC), after 20 days of treatment
Experimental: Resistance inducing assay. Consecutive and one-step resistance experiments were performed to assess the resistance-inducing ability of the compounds against S. aureus. For consecutive resistance assay, the MICs of compounds and ciprofloxacin (CIP) were determined on the first day. […] […] […] And the antimicrobial activity of the compounds against the CIP-induced strains were assessed by microdilution assay as described above. For one-step resistance assay, overnight cultured S. aureus was adjusted to a final concentration of approximately OD630=0.5 with sterile saline. One hundred microliters of the bacterial suspension were uniformly spread in pre-prepared MH agar plates containing a specific concentration of compounds. Rifampicin (RFP) was used as a positive control. The viable cells were counted on the plates after incubation at 37°C for 48h. The frequency of spontaneous drug resistance mutation was defined as the ratio of the number of resistant CFU counts to the initial CFU counts^3.

[7] = tested on: HSF; assay: Cytotoxicity by CCK-8; type: cell-based, human
Experimental: Cytotoxicity assessment by Cell Counting Kit-8 (CCK-8). The CCK-8 (DojinDo, Japan) was used to detect the cytotoxicity of compounds on human cell lines (LO2, HepG2, and HSF). Briefly, log phased cells were diluted with its optimal medium to ~4000 cells/well in a 96-well plate. After incubation at 37 ℃ with 5% CO2 for 24h, the unadhered cells were removed by PBS washing, and serially diluted compounds were added to each well for 24h incubation at 37 ℃ with 5% CO2. Then, 10 µL of CCK-8 was added to each well and the absorbance at 450 nm (A450nm) was recorded after 3 h of incubation^17.

SMILES: Cc1nc2c(-c3ccc(Cl)cc3)cnn2c(O)c1Cc1ccccc1 [STK848198]
- genotoxicity [1]: no genotoxicity
- CFU(x±SD) ([2]; TA 98, +S9, 25 μg/well): 6 ±1 CFU
- Fold Change ([2]; TA 98, +S9, 25 μg/well): 0.9
- CFU(x±SD) ([2]; TA 98, +S9, 50 μg/well): 5 ±1 CFU
- Fold Change ([2]; TA 98, +S9, 50 μg/well): 0.8
- CFU(x±SD) ([2]; TA 98, +S9, 100 μg/well): 4 ±1 CFU
- Fold Change ([2]; TA 98, +S9, 100 μg/well): 0.7
- CFU(x±SD) ([2]; TA 98, +S9, 200 μg/well): 5 ±1 CFU
- Fold Change ([2]; TA 98, +S9, 200 μg/well): 0.7
- CFU(x±SD) ([2]; TA 98, +S9, 400 μg/well): 4 ±0 CFU
- Fold Change ([2]; TA 98, +S9, 400 μg/well): 0.6
- CFU(x±SD) ([2]; TA 98, -S9, 25 μg/well): 5±3 CFU
- Fold Change ([2]; TA 98, -S9, 25 μg/well): 0.8
- CFU(x±SD) ([2]; TA 98, -S9, 50 μg/well): 5±1 CFU
- Fold Change ([2]; TA 98, -S9, 50 μg/well): 0.8
- CFU(x±SD) ([2]; TA 98, -S9, 100 μg/well): 3±2 CFU
- Fold Change ([2]; TA 98, -S9, 100 μg/well): 0.5
- CFU(x±SD) ([2]; TA 98, -S9, 200 μg/well): 1±2 CFU
- Fold Change ([2]; TA 98, -S9, 200 μg/well): 0.2
- CFU(x±SD) ([2]; TA 98, -S9, 400 μg/well): 0±1 CFU
- Fold Change ([2]; TA 98, -S9, 400 μg/well): 0.1
- CFU(x±SD) ([3]; TA 100, +S9, 25 μg/well): 8 ±2 CFU
- Fold Change ([3]; TA 100, +S9, 25 μg/well): 0.2
- CFU(x±SD) ([3]; TA 100, +S9, 50 μg/well): 7 ±1 CFU
- Fold Change ([3]; TA 100, +S9, 50 μg/well): 0.2
- CFU(x±SD) ([3]; TA 100, +S9, 100 μg/well): 9 ±3 CFU
- Fold Change ([3]; TA 100, +S9, 100 μg/well): 0.3
- CFU(x±SD) ([3]; TA 100, +S9, 200 μg/well): 8±3 CFU
- Fold Change ([3]; TA 100, +S9, 200 μg/well): 0.2
- CFU(x±SD) ([3]; TA 100, +S9, 400 μg/well): 8 ±2 CFU
- Fold Change ([3]; TA 100, +S9, 400 μg/well): 0.2
- CFU(x±SD) ([3]; TA 100, -S9, 25 μg/well): 5±2 CFU
- Fold Change ([3]; TA 100, -S9, 25 μg/well): 0.2
- CFU(x±SD) ([3]; TA 100, -S9, 50 μg/well): 6±2 CFU
- Fold Change ([3]; TA 100, -S9, 50 μg/well): 0.2
- CFU(x±SD) ([3]; TA 100, -S9, 100 μg/well): 5±2 CFU
- Fold Change ([3]; TA 100, -S9, 100 μg/well): 0.1
- CFU(x±SD) ([3]; TA 100, -S9, 200 μg/well): 9±3 CFU
- Fold Change ([3]; TA 100, -S9, 200 μg/well): 0.3
- CFU(x±SD) ([3]; TA 100, -S9, 400 μg/well): 4±2 CFU
- Fold Change ([3]; TA 100, -S9, 400 μg/well): 0.1
- CFU(x±SD) ([4]; +S9, 25 μg/well): 6±5 CFU
- Fold Change ([4]; +S9, 25 μg/well): 0.3
- CFU(x±SD) ([4]; +S9, 50 μg/well): 6±2 CFU
- Fold Change ([4]; +S9, 50 μg/well): 0.2
- CFU(x±SD) ([4]; +S9, 100 μg/well): 4±4 CFU
- Fold Change ([4]; +S9, 100 μg/well): 0.2
- CFU(x±SD) ([4]; +S9, 200 μg/well): 4±1 CFU
- Fold Change ([4]; +S9, 200 μg/well): 0.2
- CFU(x±SD) ([4]; +S9, 400 μg/well): 5±2 CFU
- Fold Change ([4]; +S9, 400 μg/well): 0.2
- CFU(x±SD) ([4]; -S9, 25 μg/well): 14±2 CFU
- Fold Change ([4]; -S9, 25 μg/well): 0.6
- CFU(x±SD) ([4]; -S9, 50 μg/well): 11±1 CFU
- Fold Change ([4]; -S9, 50 μg/well): 0.4
- CFU(x±SD) ([4]; -S9, 100 μg/well): 8±2 CFU
- Fold Change ([4]; -S9, 100 μg/well): 0.3
- CFU(x±SD) ([4]; -S9, 200 μg/well): 10±4 CFU
- Fold Change ([4]; -S9, 200 μg/well): 0.4
- CFU(x±SD) ([4]; -S9, 400 μg/well): 4±3 CFU
- Fold Change ([4]; -S9, 400 μg/well): 0.2
- CFU(x±SD) ([5]; TA 1535, +S9, 25 μg/well): 2±1 CFU
- Fold Change ([5]; TA 1535, +S9, 25 μg/well): 0.9
- CFU(x±SD) ([5]; TA 1535, +S9, 50 μg/well): 2±1 CFU
- Fold Change ([5]; TA 1535, +S9, 50 μg/well): 0.9
- CFU(x±SD) ([5]; TA 1535, +S9, 100 μg/well): 2±1 CFU
- Fold Change ([5]; TA 1535, +S9, 100 μg/well): 1
- CFU(x±SD) ([5]; TA 1535, +S9, 200 μg/well): 2±1 CFU
- Fold Change ([5]; TA 1535, +S9, 200 μg/well): 0.7
- CFU(x±SD) ([5]; TA 1535, +S9, 400 μg/well): 2±1 CFU
- Fold Change ([5]; TA 1535, +S9, 400 μg/well): 0.7
- CFU(x±SD) ([5]; TA 1535, -S9, 25 μg/well): 2±1 CFU
- Fold Change ([5]; TA 1535, -S9, 25 μg/well): 0.9
- CFU(x±SD) ([5]; TA 1535, -S9, 50 μg/well): 2±2 CFU
- Fold Change ([5]; TA 1535, -S9, 50 μg/well): 1
- CFU(x±SD) ([5]; TA 1535, -S9, 100 μg/well): 2±2 CFU
- Fold Change ([5]; TA 1535, -S9, 100 μg/well): 1
- CFU(x±SD) ([5]; TA 1535, -S9, 200 μg/well): 1±1 CFU
- Fold Change ([5]; TA 1535, -S9, 200 μg/well): 0.6
- CFU(x±SD) ([5]; TA 1535, -S9, 400 μg/well): 1±1 CFU
- Fold Change ([5]; TA 1535, -S9, 400 μg/well): 0.6
- MIC increasement after sub-MIC treatment [6]: 0 fold
- cytotoxicity [7]: no toxicity
